Source: EP4461773A1, “FLUORESCENT HEMICRYPTOPHANES AND USES THEREOF” (Ecole Centrale de Marseille, priority 2023, dated 2024)
Where two headings read alike, the source gives them in different places.

Key:
[1] = comparative data, stated as obtained according to the same procedure; footnotes cite New J. Chem. 2019 and GFP congress 2022; cited from earlier work
[2] = in water at pH 7, estimated; cited from earlier work
[3] = Fluorescence titration with chlordecone, binding constant calculated with Bindfit; settings: compounds of the invention; DMSO+2% H2O, 25 °C, host 5.0 µM or 0.5 µM, chlordecone 5.0 mM additions
Description: A solution of each hemicryptophane (2.5 mL, 5.0 µM for hosts 9 and 5 and 0.5 µM for host 8) in DMSO+2% H2O was transferred into the quartz cuvette. Successive additions of a concentrated chlordecone solution (5.0 mM in the same solvent mixture) were performed. The final volume of the solution was almost unchanged (2.5 mL) since very small volumes of chlordecone solution were added. The solutions were mixed and incubated for 30 s before irradiation at their maximum of excitation (274 nm, 297 nm and 349 nm for hosts 9, 5, 8 respectively) at 25 °C. The corresponding emission values during titration were then recorded. Fluorescence emission spectra are reproduced at Figures 1A (5), 1B (8), and 1C (9) and the relative fluorescence intensities as a function of the [chlordecone]/[hemicryptophane] are reproduced at Figures 2A (5), 2B (8), and 2C (9).
Binding constant (Ka) were calculated using Bindfit program and results are reproduced at Table 1 below, further including comparative data obtained according to the same procedure.

COc1cc2c3cc1OCCOc1ccc(cc1)CNC(=O)CN1CC(=O)NCc4ccc(cc4)OCCOc4cc(c(cc4OC)C3)Cc3cc(OC)c(cc3C2)OCCOc2ccc(cc2)CNC(=O)C1
Binding constant (Ka) [1]: [drawing 21] Ka = 126 L/mol ± 3.7%

COc1cc2c3cc1OCCOc1ccc(cc1)CNCCN1CCNCc4ccc(cc4)OCCOc4cc(c(cc4OC)C3)Cc3cc(OC)c(cc3C2)OCCOc2ccc(cc2)CNCC1
Binding constant (Ka) [1]: [drawing 22] Ka = 2.1 x 10^4 L/mol ± 3.4%

COc1cc2c3cc1OCCOc1ccc4cc(ccc4c1)CNCCN1CCNCc4ccc5cc(ccc5c4)OCCOc4cc(c(cc4OC)C3)Cc3cc(OC)c(cc3C2)OCCOc2ccc3cc(ccc3c2)CNCC1
Binding constant (Ka) [1]: [drawing 23] Ka = 6.4 x 10^3 L/mol ± 4.4%

C(#Cc1cc2c3cc1OCCOc1ccc(cc1)CNCCN1CCNCc4ccc(cc4)OCCOc4cc(c(cc4C#Cc4ccccc4)C3)Cc3cc(C#Cc4ccccc4)c(cc3C2)OCCOc2ccc(cc2)CNCC1)c1ccccc1
Binding constant (Ka) [1]: [drawing 25] Ka = 1.4 x 10^5 L/mol ± 12%

COc1cc2c3cc1OCCOc1ccc(cc1-c1ccccc1)CNCCN1CCNCc4ccc(c(-c5ccccc5)c4)OCCOc4cc(c(cc4OC)C3)Cc3cc(OC)c(cc3C2)OCCOc2ccc(cc2-c2ccccc2)CNCC1
Binding constant (Ka) [1]: [drawing 26] Ka = 1.9 x 10^4 L/mol ± 75%

COc1cc2c3cc1OCCOc1ccc(cc1)CN(S(=O)(=O)c1cccc4c(N(C)C)cccc14)CCN1CCN(S(=O)(=O)c4cccc5c(N(C)C)cccc45)Cc4ccc(cc4)OCCOc4cc(c(cc4OC)C3)Cc3cc(OC)c(cc3C2)OCCOc2ccc(cc2)CN(S(=O)(=O)c2cccc3c(N(C)C)cccc23)CC1
Binding constant (Ka) [1]: [drawing 27] Ka = 3.0 x 10^3 L/mol ± 6.9%

O=C1C2(Cl)C3(Cl)C4(Cl)C(Cl)(Cl)C5(Cl)C3(Cl)C1(Cl)C5(Cl)C24Cl (centres unmarked) [Chlordecone]
solubility [2]: around 2 mg/L

COc1cc2c3cc1OCCNCc1cc(-c4ccccc4)ccc1OCc1cc4cc(c1)COc1ccc(-c5ccccc5)cc1CNCCOc1cc(c(cc1OC)Cc1cc(c(OC)cc1C3)OCCNCc1cc(-c3ccccc3)ccc1OC4)C2 [compound 9]
Binding constant (Ka) [3]: [drawing 20] Ka = 4.6 x 10^5 L/mol ± 17%
